Data: patent US20060275835A1, “Methods for identifying cell surface receptor protein modulators” (priority 2003, published 2006)

Experiments:
Format in all cases: cell-based
mGluR5 [1] = molecular target: T1, mGluR5 (Homo sapiens, UniProt P41594); assay: FLIPR Ca2+ flux assay in human mGluR5 CHONFAT/mGLAST cells; conditions: Fluo-4, FLIPR384, normalized to glutamate (10 μM) control maximum; EC50 values only in figure
T1 construct: expressed in transfected cells
Method: Agonists were added after 10 seconds of baseline determination. Data were normalized to a glutamate (10 μM) control maximum. Concentration-response curves were generated from mean data of 5 experiments. Error bars are SEM.
CHO cells expressing mGluR5 receptors (mGluR5 CHO cells) were plated in clear-bottomed, poly-D-lysine coated 384-well plates (Becton-Dickinson 35-6663 Franklin Lakes USA) in glutamate/glutamine-free medium using a Multidrop 384 cell dispenser (Thermo Labsystems, Franklin USA). The plated cells were grown overnight at 37° C. in the presence of 6% CO2. The following day, the cells were washed with 3×100 μl assay buffer (Hanks Balanced Salt Solution (Gibco 14025) containing 20 mM HEPES (Gibco 15630), 2.5 mM probenicid (Sigma P-8761), and 0.1% bovine serum albumin (Sigma) using an Embla cell washer (Skatron, Lier Norway). The cells were incubated with 1 μM Fluo-4AM (Molecular Probes) for 1 h at 37° C. and 6% CO2. The extracellular dye was removed by washing as described above. Ca^2+ flux was measured using FLIPR384, fluorometric imaging plate reader (Molecular Devices, Sunnyvale USA). For potency determination, the cells were pre-incubated with various concentrations of compound for 5 min and then stimulated for 3 min with either an EC20 or EC50 concentration of agonist (i.e. glutamate) for potentiation measurements or antagonist measurements, respectively.

mGluR5 [2] = molecular target: T1, mGluR5; assay: β-lactamase reporter gene assay in mGluR5CHONFAT co-expressing mGLAST
Text: (§1) Aurora transcription based reporter cell lines were used to develop reporter gene assays for the mGluRs. The cell line, CHONFAT-β-lactamase, reports signaling through Gq-coupled receptors via an increase in intracellular calcium. The β-lactamase gene is under the transcriptional control of the nuclear factor of activated T-cells (N-FAT) promoter (reporting increased intracellular calcium). A second cell line Gqi5CHONFAT was utilized for Gi coupled mGluRs. This cell line contains a promiscuous G-protein that promotes coupling to a Gq signal transduction cascade. […] The production of β-lactamase resulting from the downstream signaling events of receptor activation is detected by loading cells with a fluorescent dye, CCF2-AM, a substrate cleavable by the β-lactamase enzyme. In its cleaved state, the substrate will fluoresce blue (EM460) when stimulated with UV light (395 nm). Noncleaved, the intact dye fluoresces green (EM530) (Science 1998, 279:84-88). The ratio of blue to green cells (Em460/530) is determined as a measure of signal transduction, with cells that have transduced a signal being blue and those that have not green.
Cells were plated at 80,000 cells per well in poly-D-lysine coated black clear bottom plates (Becton Dickinson) and grown in glutamate/glutamine free media (DMEM, -glutamine, 10% dialyzed fetal calf serum, 100 units/ml penicillin/streptomycin, 0.1 mM non-essential amino acids, 1 mM sodium pyruvate, 25 mM HEPES, 0.25 mg/mL zeocin, 10 μg/ml puromycin (Clontech 8052-2) and 1 mg/mL G418 for cell lines co-expressing mGluRs and mGLAST. All media was from GIBCO unless specified. Cells were grown overnight at 5% CO2, 37° C. The next day, media was aspirated and the cells were washed twice with serum-free DMEM and replaced with 100 μL of assay media (DMEM, glutamine free), 0.1% BSA, 25 mM HEPES. […] Plates were read 45-60 minutes later on a fluorescence plate reader (excitation 405±10 nm, emission 460±20 nm for blue; 530±15 nm. Wells containing dye and no cells were used to subtract background values.

mGluR5 [3] = molecular target: T1, mGluR5; assay: β-lactamase reporter gene assay in mGluR5CHONFAT cells without mGLAST co-expression; conditions: 1 μM quisqualate
Text: as §1, with “green. […]” for “green.”

CHONFAT cells = assay: β-lactamase reporter gene assay in non-transfected CHONFAT cells; conditions: 200 nM thapsigargin; maximal fluorescence
Text: as §1, with “green. […]” for “green.”

T1 sequence (P41594 21-1212): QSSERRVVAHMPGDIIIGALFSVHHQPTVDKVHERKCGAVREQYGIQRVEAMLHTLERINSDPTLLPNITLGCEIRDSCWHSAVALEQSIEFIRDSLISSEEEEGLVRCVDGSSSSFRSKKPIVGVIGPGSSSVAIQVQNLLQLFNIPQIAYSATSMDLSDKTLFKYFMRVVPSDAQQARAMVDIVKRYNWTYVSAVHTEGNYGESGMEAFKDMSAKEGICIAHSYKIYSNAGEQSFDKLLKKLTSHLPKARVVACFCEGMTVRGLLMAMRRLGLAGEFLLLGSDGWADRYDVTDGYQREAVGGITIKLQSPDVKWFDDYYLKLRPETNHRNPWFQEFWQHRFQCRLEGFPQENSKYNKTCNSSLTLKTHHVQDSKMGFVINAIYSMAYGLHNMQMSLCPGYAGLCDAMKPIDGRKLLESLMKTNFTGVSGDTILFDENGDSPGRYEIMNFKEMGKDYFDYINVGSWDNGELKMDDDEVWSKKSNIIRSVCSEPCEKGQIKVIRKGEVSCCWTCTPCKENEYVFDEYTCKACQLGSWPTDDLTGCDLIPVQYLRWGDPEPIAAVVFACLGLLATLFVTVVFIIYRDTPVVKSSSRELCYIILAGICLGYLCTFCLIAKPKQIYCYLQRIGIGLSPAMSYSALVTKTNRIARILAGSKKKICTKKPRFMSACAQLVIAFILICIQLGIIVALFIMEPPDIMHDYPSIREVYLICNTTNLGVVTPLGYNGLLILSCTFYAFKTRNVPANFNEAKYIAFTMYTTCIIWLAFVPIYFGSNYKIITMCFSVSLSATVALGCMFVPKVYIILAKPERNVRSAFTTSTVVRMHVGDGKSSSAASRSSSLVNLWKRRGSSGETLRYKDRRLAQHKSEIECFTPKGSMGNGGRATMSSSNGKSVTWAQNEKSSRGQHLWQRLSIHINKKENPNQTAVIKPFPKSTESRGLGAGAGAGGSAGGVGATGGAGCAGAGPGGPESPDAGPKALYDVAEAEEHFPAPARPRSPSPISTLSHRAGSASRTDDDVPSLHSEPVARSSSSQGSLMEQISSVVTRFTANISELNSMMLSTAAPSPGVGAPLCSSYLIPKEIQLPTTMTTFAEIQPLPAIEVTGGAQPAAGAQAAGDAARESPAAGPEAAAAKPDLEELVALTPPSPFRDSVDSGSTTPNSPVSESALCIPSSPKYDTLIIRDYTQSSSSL

NC(C(=O)O)c1cc(O)cc(O)c1 (centres unmarked) [3,5-DHPG]
activation of Ca^2+ transients (mGluR5 [1]): activate Ca^2+ transients

N[C@@H](CCC(=O)O)C(=O)O [glutamate]
activation of Ca^2+ transients (mGluR5 [1]): activate Ca^2+ transients

N[C@@H](Cn1oc(=O)[nH]c1=O)C(=O)O [quisqualate]
activation of Ca^2+ transients (mGluR5 [1]): activate Ca^2+ transients | fluorescence ratio (EM460/530) (mGluR5 [2]; 10 μM quisqualate, with mGLAST co-expression): 1.35 | EC50 (mGluR5 [2]; dose response in the absence of positive allosteric modulator): 44 nM | EC50 (mGluR5 [2]; dose response in the presence of 10 μM positive allosteric modulator): 15 nM | fluorescence ratio (EM460/530) (mGluR5 [3]): 0.85

C/C=C(/C)C(=O)O[C@H]1C(C)=C2[C@H]([C@@H]1OC(=O)CCCCCCC)[C@@](C)(OC(C)=O)C[C@H](OC(=O)CCC)[C@@]1(O)[C@H]2OC(=O)[C@@]1(C)O [thapsigargin]
fluorescence ratio (EM460/530) (CHONFAT cells): 1.0
